Reference: ChEMBL document CHEMBL6134788, “Development of naphthalimide hydrazide derivatives as potent antibacterial agents against carbapenem-resistant A. baumannii” (RSC Med Chem, 2024)
Values after ≈ are worked out from the molar mass of the structure shown.

Legend:
Acinetobacter baumannii [1] = assay: Antibacterial activity against multi-drug resistant Acinetobacter baumannii clinical isolate 7 assessed as inhibition of bacterial growth incubated for 16 to 18 hrs by CLSI protocol based method; type: functional; settings: time 16-18 hrs, read-out: MIC100
Acinetobacter baumannii [2] = assay: Antibacterial activity against multi-drug resistant Acinetobacter baumannii clinical isolate 1 assessed as inhibition of bacterial growth incubated for 16 to 18 hrs by CLSI protocol based method; type: functional; settings: time 16-18 hrs, read-out: MIC100
Acinetobacter baumannii [3] = assay: Antibacterial activity against multi-drug resistant Acinetobacter baumannii clinical isolate 2 assessed as inhibition of bacterial growth incubated for 16 to 18 hrs by CLSI protocol based method; type: functional; settings: time 16-18 hrs, read-out: MIC100
Acinetobacter baumannii [4] = assay: Antibacterial activity against multi-drug resistant Acinetobacter baumannii Naval-17 assessed as inhibition of bacterial growth incubated for 16 to 18 hrs by CLSI protocol based method; type: functional; settings: time 16-18 hrs, read-out: MIC100
Acinetobacter baumannii [5] = assay: Antibacterial activity against multi-drug resistant Acinetobacter baumannii WL-136 assessed as inhibition of bacterial growth incubated for 16 to 18 hrs by CLSI protocol based method; type: functional; settings: time 16-18 hrs, read-out: MIC100
[6] = Selectivity index, ratio of CC50 for cytotoxicity against African green monkey VERO cells to MIC for antibacterial activity against carbapenem-resistant Acinetobacter baumannii BAA 1605 assessed as inhibition of bacterial growth; type: toxicity, cell-based; settings: read-out: Selectivity Index
Staphylococcus aureus = assay: Antibacterial activity against Staphylococcus aureus ATCC 29213 assessed as inhibition of bacterial growth incubated for 16 to 18 hrs by CLSI protocol based method; type: functional; settings: time 16-18 hrs, read-out: MIC100
Acinetobacter baumannii [7] = assay: Antibacterial activity against multi-drug resistant Acinetobacter baumannii Naval-18 assessed as inhibition of bacterial growth incubated for 16 to 18 hrs by CLSI protocol based method; type: functional; settings: time 16-18 hrs, read-out: MIC100
Acinetobacter baumannii [8] = assay: Antibacterial activity against multi-drug resistant Acinetobacter baumannii WL-487 assessed as inhibition of bacterial growth incubated for 16 to 18 hrs by CLSI protocol based method; type: functional; settings: time 16-18 hrs, read-out: MIC100
Acinetobacter baumannii [9] = assay: Antibacterial activity against multi-drug resistant Acinetobacter baumannii clinical isolate 5 assessed as inhibition of bacterial growth incubated for 16 to 18 hrs by CLSI protocol based method; type: functional; settings: time 16-18 hrs, read-out: MIC100
Acinetobacter baumannii [10] = assay: Antibacterial activity against Acinetobacter baumannii ATCC 17978 assessed as inhibition of bacterial growth incubated for 16 to 18 hrs by CLSI protocol based method; type: functional; settings: time 16-18 hrs, read-out: MIC100
Acinetobacter baumannii [11] = assay: Antibacterial activity against multi-drug resistant Acinetobacter baumannii clinical isolate 11 assessed as inhibition of bacterial growth incubated for 16 to 18 hrs by CLSI protocol based method; type: functional; settings: time 16-18 hrs, read-out: MIC100
[12] = Cytotoxicity against African green monkey Vero cells assessed as reduction in cell viability incubated for 72 hrs by MTT assay; type: toxicity, cell-based; settings: chlorocebus sabaeus
Acinetobacter baumannii [13] = assay: Antibacterial activity against multi-drug resistant Acinetobacter baumannii clinical isolate 10 assessed as inhibition of bacterial growth incubated for 16 to 18 hrs by CLSI protocol based method; type: functional; settings: time 16-18 hrs, read-out: MIC100
Acinetobacter baumannii [14] = assay: Antibacterial activity against multi-drug resistant Acinetobacter baumannii NR-17777 assessed as inhibition of bacterial growth incubated for 16 to 18 hrs by CLSI protocol based method; type: functional; settings: time 16-18 hrs, read-out: MIC100
Acinetobacter baumannii [15] = assay: Antibacterial activity against multi-drug resistant Acinetobacter baumannii H72721 assessed as inhibition of bacterial growth incubated for 16 to 18 hrs by CLSI protocol based method; type: functional; settings: time 16-18 hrs, read-out: MIC100
Acinetobacter baumannii [16] = assay: Antibacterial activity against multi-drug resistant Acinetobacter baumannii Naval-81 assessed as inhibition of bacterial growth incubated for 16 to 18 hrs by CLSI protocol based method; type: functional; settings: time 16-18 hrs, read-out: MIC100
Acinetobacter baumannii [17] = assay: Antibacterial activity against carbapenem-resistant Acinetobacter baumannii BAA 1605 assessed as inhibition of bacterial growth incubated for 16 to 18 hrs by CLSI protocol based method; type: functional; settings: time 16-18 hrs, read-out: MIC100
Acinetobacter baumannii [18] = assay: Antibacterial activity against multi-drug resistant Acinetobacter baumannii clinical isolate 8 assessed as inhibition of bacterial growth incubated for 16 to 18 hrs by CLSI protocol based method; type: functional; settings: time 16-18 hrs, read-out: MIC100
Acinetobacter baumannii [19] = assay: Antibacterial activity against multi-drug resistant Acinetobacter baumannii clinical isolate 6 assessed as inhibition of bacterial growth incubated for 16 to 18 hrs by CLSI protocol based method; type: functional; settings: time 16-18 hrs, read-out: MIC100
Pseudomonas aeruginosa = assay: Antibacterial activity against Pseudomonas aeruginosa ATCC 27853 assessed as inhibition of bacterial growth incubated for 16 to 18 hrs by CLSI protocol based method; type: functional; settings: time 16-18 hrs, read-out: MIC100
Acinetobacter baumannii [20] = assay: Antibacterial activity against multi-drug resistant Acinetobacter baumannii clinical isolate 3 assessed as inhibition of bacterial growth incubated for 16 to 18 hrs by CLSI protocol based method; type: functional; settings: time 16-18 hrs, read-out: MIC100
Acinetobacter baumannii [21] = assay: Antibacterial activity against multi-drug resistant Acinetobacter baumannii clinical isolate 4 assessed as inhibition of bacterial growth incubated for 16 to 18 hrs by CLSI protocol based method; type: functional; settings: time 16-18 hrs, read-out: MIC100
Escherichia coli = assay: Antibacterial activity against Escherichia coli ATCC 25922 assessed as inhibition of bacterial growth incubated for 16 to 18 hrs by CLSI protocol based method; type: functional; settings: time 16-18 hrs, read-out: MIC100
Acinetobacter baumannii [22] = assay: Antibacterial activity against multi-drug resistant Acinetobacter baumannii 5-109 assessed as inhibition of bacterial growth incubated for 16 to 18 hrs by CLSI protocol based method; type: functional; settings: time 16-18 hrs, read-out: MIC100
Acinetobacter baumannii [23] = assay: Antibacterial activity against multi-drug resistant Acinetobacter baumannii clinical isolate 12 assessed as inhibition of bacterial growth incubated for 16 to 18 hrs by CLSI protocol based method; type: functional; settings: time 16-18 hrs, read-out: MIC100
Acinetobacter baumannii [24] = assay: Antibacterial activity against multi-drug resistant Acinetobacter baumannii clinical isolate 9 assessed as inhibition of bacterial growth incubated for 16 to 18 hrs by CLSI protocol based method; type: functional; settings: time 16-18 hrs, read-out: MIC100
Klebsiella pneumoniae = assay: Antibacterial activity against Klebsiella pneumoniae BAA 1705 assessed as inhibition of bacterial growth incubated for 16 to 18 hrs by CLSI protocol based method; type: functional; settings: time 16-18 hrs, read-out: MIC100
Acinetobacter baumannii [25] = assay: Antibacterial activity against multi-drug resistant Acinetobacter baumannii BC-5 assessed as inhibition of bacterial growth incubated for 16 to 18 hrs by CLSI protocol based method; type: functional; settings: time 16-18 hrs, read-out: MIC100
Acinetobacter baumannii [26] = assay: Antibacterial activity against multi-drug resistant Acinetobacter baumannii 5-143 assessed as inhibition of bacterial growth incubated for 16 to 18 hrs by CLSI protocol based method; type: functional; settings: time 16-18 hrs, read-out: MIC100
Acinetobacter baumannii [27] = assay: Antibacterial activity against multi-drug resistant Acinetobacter baumannii 5-189 assessed as inhibition of bacterial growth incubated for 16 to 18 hrs by CLSI protocol based method; type: functional; settings: time 16-18 hrs, read-out: MIC100
Acinetobacter baumannii [28] = assay: Antibacterial activity against multi-drug resistant Acinetobacter baumannii 5-032 assessed as inhibition of bacterial growth incubated for 16 to 18 hrs by CLSI protocol based method; type: functional; settings: time 16-18 hrs, read-out: MIC100
Acinetobacter baumannii [29] = assay: Antibacterial activity against Acinetobacter baumannii assessed as inhibition of bacterial growth by CLSI protocol based assay; type: functional

Compound: N#Cc1ccc(NNC(=O)CCN2C(=O)c3cccc4cccc(c34)C2=O)cc1
- MIC (Acinetobacter baumannii [1]): 1 µg/mL (≈ 2.6 µM)
- MIC (Acinetobacter baumannii [2]): 1 µg/mL (≈ 2.6 µM)
- MIC (Acinetobacter baumannii [3]): 2 µg/mL (≈ 5.2 µM)
- MIC (Acinetobacter baumannii [4]): 2 µg/mL (≈ 5.2 µM)
- MIC (Acinetobacter baumannii [5]): 2 µg/mL (≈ 5.2 µM)
- selectivity ratio [6]: > 200
- MIC (Staphylococcus aureus): > 64 µg/mL
- MIC (Acinetobacter baumannii [7]): 2 µg/mL (≈ 5.2 µM)
- MIC (Acinetobacter baumannii [8]): 4 µg/mL (≈ 10.4 µM)
- MIC (Acinetobacter baumannii [9]): 4 µg/mL (≈ 10.4 µM)
- MIC (Acinetobacter baumannii [10]): 2 µg/mL (≈ 5.2 µM)
- MIC (Acinetobacter baumannii [11]): 2 µg/mL (≈ 5.2 µM)
- CC50 at 72 h [12]: > 100 µg/mL
- MIC (Acinetobacter baumannii [13]): 8 µg/mL (≈ 20.8 µM)
- MIC (Acinetobacter baumannii [14]): 2 µg/mL (≈ 5.2 µM)
- MIC (Acinetobacter baumannii [15]): 2 µg/mL (≈ 5.2 µM)
- MIC (Acinetobacter baumannii [16]): 2 µg/mL (≈ 5.2 µM)
- MIC (Acinetobacter baumannii [17]): 0.5 µg/mL (≈ 1.3 µM)
- MIC (Acinetobacter baumannii [18]): 2 µg/mL (≈ 5.2 µM)
- MIC (Acinetobacter baumannii [19]): 4 µg/mL (≈ 10.4 µM)
- MIC (Pseudomonas aeruginosa): > 64 µg/mL
- MIC (Acinetobacter baumannii [20]): 1 µg/mL (≈ 2.6 µM)
- MIC (Acinetobacter baumannii [21]): 2 µg/mL (≈ 5.2 µM)
- MIC (Escherichia coli): > 64 µg/mL
- MIC (Acinetobacter baumannii [22]): 2 µg/mL (≈ 5.2 µM)
- MIC (Acinetobacter baumannii [23]): 2 µg/mL (≈ 5.2 µM)
- MIC (Acinetobacter baumannii [24]): 2 µg/mL (≈ 5.2 µM)
- MIC (Klebsiella pneumoniae): > 64 µg/mL
- MIC (Acinetobacter baumannii [25]): 2 µg/mL (≈ 5.2 µM)
- MIC (Acinetobacter baumannii [26]): 1 µg/mL (≈ 2.6 µM)
- MIC (Acinetobacter baumannii [27]): 4 µg/mL (≈ 10.4 µM)
- MIC (Acinetobacter baumannii [28]): 2 µg/mL (≈ 5.2 µM)

Compound: O=C(CCN1C(=O)c2cccc3cccc(c23)C1=O)NNc1ccc(F)cc1
- MIC (Acinetobacter baumannii [1]): 2 µg/mL (≈ 5.3 µM)
- MIC (Acinetobacter baumannii [2]): 2 µg/mL (≈ 5.3 µM)
- MIC (Acinetobacter baumannii [3]): 2 µg/mL (≈ 5.3 µM)
- MIC (Acinetobacter baumannii [4]): 2 µg/mL (≈ 5.3 µM)
- MIC (Acinetobacter baumannii [5]): 2 µg/mL (≈ 5.3 µM)
- selectivity ratio [6]: 80
- MIC (Staphylococcus aureus): > 64 µg/mL
- MIC (Acinetobacter baumannii [7]): 2 µg/mL (≈ 5.3 µM)
- MIC (Acinetobacter baumannii [8]): 1 µg/mL (≈ 2.65 µM)
- MIC (Acinetobacter baumannii [9]): 4 µg/mL (≈ 10.6 µM)
- MIC (Acinetobacter baumannii [10]): 1 µg/mL (≈ 2.65 µM)
- MIC (Acinetobacter baumannii [11]): 2 µg/mL (≈ 5.3 µM)
- CC50 at 72 h [12]: 80 µg/mL (≈ 212 µM)
- MIC (Acinetobacter baumannii [13]): 2 µg/mL (≈ 5.3 µM)
- MIC (Acinetobacter baumannii [14]): 4 µg/mL (≈ 10.6 µM)
- MIC (Acinetobacter baumannii [15]): 2 µg/mL (≈ 5.3 µM)
- MIC (Acinetobacter baumannii [16]): 2 µg/mL (≈ 5.3 µM)
- MIC (Acinetobacter baumannii [17]): 1 µg/mL (≈ 2.65 µM)
- MIC (Acinetobacter baumannii [18]): 2 µg/mL (≈ 5.3 µM)
- MIC (Acinetobacter baumannii [19]): 4 µg/mL (≈ 10.6 µM)
- MIC (Pseudomonas aeruginosa): > 64 µg/mL
- MIC (Acinetobacter baumannii [20]): 0.5 µg/mL (≈ 1.32 µM)
- MIC (Acinetobacter baumannii [21]): 2 µg/mL (≈ 5.3 µM)
- MIC (Escherichia coli): > 64 µg/mL
- MIC (Acinetobacter baumannii [22]): 4 µg/mL (≈ 10.6 µM)
- MIC (Acinetobacter baumannii [23]): 2 µg/mL (≈ 5.3 µM)
- MIC (Acinetobacter baumannii [24]): 2 µg/mL (≈ 5.3 µM)
- MIC (Klebsiella pneumoniae): > 64 µg/mL
- MIC (Acinetobacter baumannii [25]): 1 µg/mL (≈ 2.65 µM)
- MIC (Acinetobacter baumannii [26]): 2 µg/mL (≈ 5.3 µM)
- MIC (Acinetobacter baumannii [27]): 4 µg/mL (≈ 10.6 µM)
- MIC (Acinetobacter baumannii [28]): 4 µg/mL (≈ 10.6 µM)

Compound: CN1C(=O)/C(=C/NNc2ccc(C#N)cc2)SC1=S
- MIC (Acinetobacter baumannii [29]): 16 µg/mL (≈ 55.1 µM)
